By Ki is commonly meant the equilibrium dissociation constant of an inhibitor or competing ligand from its target. What is called IC50 is the concentration needed to halve the response being measured. High values mean lower potency, low ones higher potency.

The values that follow come from patent US20240217967A1, “INDOLINE DERIVATIVES AS DDRS INHIBITORS” (CHIESI FARMACEUTICI S.P.A., priority 2021, published 2024).

Bounds are passed on as bounds.

For assay [1], the target named is T1, DDR1 (Homo sapiens, UniProt Q08345). Description: DDR1 LanthaScreen Europium Kinase Binding assay. The following applies: binding affinity; IC50 converted in Ki using Cheng-Prusoff; read-out: Ki DDR1. Here is the method: (§1) DDR1 and DDR2 binding assays were performed using Life Technologies LanthaScreen™ Europium Kinase Binding assay. The compounds were incubated with 5 nM DDR1 (Carna Biosciences) or 5 nM DDR2 (Life Technologies) for 1 hour at room temperature in white 384-well OptiPlate (PerkinElmer), containing 20 nM or 10 nM Kinase Tracer 178 respectively and 2 nM Europium labelled anti-GST antibody (Life Technologies) in assay buffer (50 mM HEPES pH 7.5, 10 mM MgCI2, 1 mM EGTA and 0.01% BRIJ35). The ratio of fluorescence emission 665 nm/615 nm after excitation at 340 nm was obtained using the Tecan Spark 20M plate reader. IC50 values were determined in GraphPad Prism 7.0 software, using 4 parameter model: log(inhibitor) vs. response. IC50 values were converted in Ki using the Cheng-Prusoff equation (Ki=IC50/(1+[Tracer]/Kd).
For orientation: Time-resolved FRET reads energy transfer from a long-lived donor to a nearby acceptor.

In a further assay the target is T2, DDR2 (Homo sapiens, UniProt Q16832).
T2 sequence (Q16832 22-855): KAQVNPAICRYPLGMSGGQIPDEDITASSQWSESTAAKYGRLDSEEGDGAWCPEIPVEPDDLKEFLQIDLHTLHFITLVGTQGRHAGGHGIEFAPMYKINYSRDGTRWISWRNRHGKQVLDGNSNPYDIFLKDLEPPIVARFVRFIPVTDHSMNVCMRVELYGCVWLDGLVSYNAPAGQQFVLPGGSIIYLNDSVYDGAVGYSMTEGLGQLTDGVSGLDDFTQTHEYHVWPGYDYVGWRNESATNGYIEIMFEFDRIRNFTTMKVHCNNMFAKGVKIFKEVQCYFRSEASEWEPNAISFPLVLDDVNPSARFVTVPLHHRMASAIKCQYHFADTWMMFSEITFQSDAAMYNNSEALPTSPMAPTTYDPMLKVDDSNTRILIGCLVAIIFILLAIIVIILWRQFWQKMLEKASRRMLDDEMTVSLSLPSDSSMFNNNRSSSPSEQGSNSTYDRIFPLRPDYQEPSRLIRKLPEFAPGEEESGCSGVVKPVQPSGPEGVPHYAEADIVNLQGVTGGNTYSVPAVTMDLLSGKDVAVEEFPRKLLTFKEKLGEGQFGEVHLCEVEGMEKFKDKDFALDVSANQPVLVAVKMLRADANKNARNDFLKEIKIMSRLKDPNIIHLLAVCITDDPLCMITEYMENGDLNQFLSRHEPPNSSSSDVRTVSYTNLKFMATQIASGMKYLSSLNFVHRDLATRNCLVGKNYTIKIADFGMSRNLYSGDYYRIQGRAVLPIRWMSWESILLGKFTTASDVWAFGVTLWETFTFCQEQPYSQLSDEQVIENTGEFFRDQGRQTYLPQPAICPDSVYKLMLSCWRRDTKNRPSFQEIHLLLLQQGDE
Description: DDR2 LanthaScreen Europium Kinase Binding assay. The following applies: binding affinity; IC50 converted in Ki using Cheng-Prusoff; read-out: Ki DDR2. How it is done:
as §1

Assay [2] addresses T1, DDR1. Description: DDR1 cell based assay (PathHunter U2OS DDR1, collagen II stimulation). The following applies: U2OS-DDR1 cells, bovine Type II Collagen stimulation. How it is done: The inhibition of DDR1 receptor activation by compounds was evaluated by PathHunter® U2OS DDR1 assay (Eurofins DiscoverX), according to the manufacturer's instructions. Briefly, U2OS-DDR1 cells were seeded in white 384-well plates at a density of 5000 cells/well and incubated for 2 hours at 37° C. and 5% CO2. Cells were then treated with compounds at different concentrations and incubated for 30 minutes, before stimulation with bovine Type II Collagen 20 μg/ml and incubation overnight at 37° C. and 5% CO2. PathHunter Detection Reagents were prepared according to the protocol provided by DiscoverX and 20 μl/well of this mix were added to each well. After incubating the plates for 1 hour at room temperature in the dark, luminescence signal was acquired with a plate reader. Raw data were normalized to vehicle control (0% for normalization) and positive control (100% for normalization; cells treated with 20 μg/ml collagen II) and IC50 parameters were calculated in GraphPad Prism 8.0 software, using sigmoidal dose-response curve fitting with variable slope.

T1 sequence (Q08345 19-913): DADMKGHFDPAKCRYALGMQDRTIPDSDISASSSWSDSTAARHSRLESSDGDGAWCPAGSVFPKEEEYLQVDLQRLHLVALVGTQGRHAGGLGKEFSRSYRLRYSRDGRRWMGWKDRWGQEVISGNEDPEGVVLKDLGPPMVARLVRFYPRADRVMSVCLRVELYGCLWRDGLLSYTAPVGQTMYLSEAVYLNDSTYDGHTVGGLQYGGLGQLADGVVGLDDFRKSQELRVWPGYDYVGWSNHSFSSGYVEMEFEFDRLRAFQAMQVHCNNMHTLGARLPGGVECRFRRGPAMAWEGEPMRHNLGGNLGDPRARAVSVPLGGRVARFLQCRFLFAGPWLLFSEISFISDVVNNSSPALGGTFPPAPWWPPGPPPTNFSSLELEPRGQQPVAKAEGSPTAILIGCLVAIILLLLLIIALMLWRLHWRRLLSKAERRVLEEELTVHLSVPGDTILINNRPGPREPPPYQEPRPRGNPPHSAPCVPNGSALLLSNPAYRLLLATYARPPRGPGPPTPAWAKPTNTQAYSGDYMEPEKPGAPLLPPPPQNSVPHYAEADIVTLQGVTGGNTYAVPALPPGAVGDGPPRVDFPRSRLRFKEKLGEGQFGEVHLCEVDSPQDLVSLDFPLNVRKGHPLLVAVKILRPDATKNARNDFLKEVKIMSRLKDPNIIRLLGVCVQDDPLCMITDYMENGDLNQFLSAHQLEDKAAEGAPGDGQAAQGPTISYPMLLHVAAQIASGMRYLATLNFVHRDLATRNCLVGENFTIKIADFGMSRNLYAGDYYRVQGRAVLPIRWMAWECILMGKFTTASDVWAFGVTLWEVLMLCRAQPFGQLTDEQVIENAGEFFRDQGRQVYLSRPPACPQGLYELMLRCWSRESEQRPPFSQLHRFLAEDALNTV

As for `CC(C)(c1cc(NC(=O)c2ccc3c(c2)N(Cc2cnc4ccccn24)CC3)no1)C(F)(F)F` [Example 58, 1-(imidazo[1,2-a]pyridin-3-ylmethyl)-N-(5-(1,1,1-trifluoro-2-methylpropan-2-yl)isoxazol-3-yl)indoline-6-carboxamide], the Ki was 25 to 50 nM on DDR1 [1] and below 25 nM on DDR2. On DDR1 [2], the IC50 was below 25 nM.

In the case of `Cc1cn(-c2cc(C(=O)Nc3ccc4c(c3)N(C(=O)c3cnc5cnccn35)CC4)cc(C(F)(F)F)c2)cn1` [Example 20, N-(1-(imidazo[1,2-a]pyrazine-3-carbonyl)indolin-6-yl)-3-(4-methyl-1H-imidazol-1-yl)-5-(trifluoromethyl)benzamide], the Ki at DDR1 [1] and at DDR2 was below 25 nM each time. On DDR1 [2], this compound returned an IC50 of 25 to 50 nM.

Regarding `Cc1cn(-c2cc(NC(=O)c3ccc4c(c3)N(C(=O)c3cnc5cnccn35)CC4C)cc(C(F)(F)F)c2)cn1` (stereo not drawn) [Example 29, 1-(imidazo[1,2-a]pyrazine-3-carbonyl)-3-methyl-N-(3-(4-methyl-1H-imidazol-1-yl)-5-(trifluoromethyl)phenyl)indoline-6-carboxamide], the Ki at DDR1 [1] and on DDR2 was below 25 nM throughout. The compound further gave an IC50 against DDR1 [2] of 50 to 80 nM.

As to `Cc1cn(-c2cc(NC(=O)c3ccc4c(c3)N(C(=O)c3cnc5cnccn35)CC4)cc(C(F)(F)F)c2)cn1` [Example 13, 1-(imidazo[1,2-a]pyrazine-3-carbony1)-N-(3-(4-methyl-1H-imidazol-1-y1)-5-(trifluoromethyl)phenyl)indoline-6-carboxamide], the Ki at DDR1 [1] and at DDR2 was below 25 nM throughout. The compound also came in with an IC50 against DDR1 [2] of 50 to 80 nM.

Consider `Cc1cn(-c2cc(NC(=O)c3ccc4c(c3)N(C(=O)c3cnc5ccccn35)CC4)cc(C(F)(F)F)c2)cn1` [Example 12, 1-(imidazo[1,2-a]pyridine-3-carbonyl)-N-(3-(4-methyl-1H-imidazol-1-yl)-5-(trifluoromethyl)phenyl)indoline-6-carboxamide], for which the Ki at DDR1 [1] and on DDR2 was below 25 nM in each case. For the same compound, the IC50 at DDR1 [2] was in the range of 50 to 80 nM.

In the case of `Cc1n[nH]c2ncc(CN3CCc4ccc(C(=O)Nc5cncc(C(F)(F)F)c5)cc43)cc12` [Example 71, 1-((3-methyl-1H-pyrazolo[3,4-b]pyridin-5-yl)methyl)-N-(5-(trifluoromethyl)pyridin-3-yl)indoline-6-carboxamide], the Ki on DDR1 [1] and on DDR2 was below 25 nM each time. The compound also returned an IC50 on DDR1 [2] below 25 nM.

In the case of `O=C(Nc1cc(OCCN2CCOCC2)cc(C(F)(F)F)c1)c1ccc2c(c1)N(Cc1cnc3cnccn13)CC2` [Example 53, 1-(imidazo[1,2-a]pyrazin-3-ylmethyl)-N-(3-(2-morpholinoethoxy)-5-(trifluoromethyl)phenyl)indoline-6-carboxamide], the Ki on DDR1 [1] and on DDR2 was below 25 nM each time. The IC50 at DDR1 [2] lay within 50 to 80 nM.

For the compound `O=C(Nc1cccc(C(F)(F)F)c1)c1ccc2c(c1)N(Cc1cnc3ccccn13)CC2` [Example 57, 1-(imidazo[1,2-a]pyridin-3-ylmethyl)-N-(3-(trifluoromethyl)phenyl)indoline-6-carboxamide], the figures for the Ki on DDR1 [1] and on DDR2 were 25 to 50 nM and 50 to 80 nM, respectively. For the same compound, the IC50 against DDR1 [2] is 25 to 50 nM.

With `Cc1cn(-c2cc(C(=O)Nc3ccc4c(c3)N(C(=O)c3cnc5ccccn35)CC4)cc(C(F)(F)F)c2)cn1` [Example 19, N-(1-(imidazo[1,2-a]pyridine-3-carbonyl)indolin-6-yl)-3-(4-methyl-1H-imidazol-1-yl)-5-(trifluoromethyl)benzamide], the Ki on DDR1 [1] and on DDR2 was below 25 nM each time. For the same compound, the IC50 against DDR1 [2] fell in the range of 25 to 50 nM.

With `CN(C)Cc1c[nH]c2ncc(CN3CCc4ccc(C(=O)Nc5cccc(C(F)(F)F)c5)cc43)cc12` [Example 90, 1-((3-((dimethylamino)methyl)-1H-pyrrolo[2,3-b]pyridin-5-yl)methyl)-N-(3-(trifluoromethyl)phenyl)indoline-6-carboxamide], the Ki at DDR1 [1] and at DDR2 was below 25 nM throughout. The half-inhibitory concentration (IC50) on DDR1 [2] is below 25 nM.

Regarding `CC1CN(Cc2cnc3[nH]ncc3c2)c2cc(C(=O)Nc3cccc(C(F)(F)F)c3)ccc21` (racemic) [Example 30, 1-((1H-pyrazolo[3,4-b]pyridin-5-yl)methyl)-3-methyl-N-(3-(trifluoromethyl)phenyl)indoline-6-carboxamide], the Ki at DDR1 [1] and at DDR2 was below 25 nM each time. The IC50 at DDR1 [2] was below 25 nM.

For the compound `CN1CCC(Oc2ccc(NC(=O)c3ccc4c(c3)N(Cc3cnc5cnccn35)CC4)cc2C(F)(F)F)CC1` [Example 54, 1-(imidazo[1,2-a]pyrazin-3-ylmethyl)-N-(4-((1-methylpiperidin-4-yl)oxy)-3-(trifluoromethyl)phenyl)indoline-6-carboxamide], the Ki on DDR1 [1] and on DDR2 was below 25 nM throughout. Also, the IC50 against DDR1 [2] was 50 to 80 nM.

As to `Cc1n[nH]c2ncc(CN3CCc4ccc(C(=O)Nc5cc(CN6CCCC6)cc(C(F)(F)F)c5)cc43)cc12` [Example 66, 1-((3-methyl-1H-pyrazolo[3,4-b]pyridin-5-yl)methyl)-N-(3-(pyrrolidin-1-ylmethyl)-5-(trifluoromethyl)phenyl)indoline-6-carboxamide], the Ki on DDR1 [1] and at DDR2 was below 25 nM in each case. For the same compound, the IC50 on DDR1 [2] was below 25 nM.

As to `CN1CCN(Cc2cc(NC(=O)c3ccc4c(c3)N(Cc3cnc5ccccn35)CC4)cc(C(F)(F)F)c2)CC1` [Example 11, 1-(imidazo[1,2-a]pyridin-3-ylmethyl)-N-(3-((4-methylpiperazin-1-yl)methyl)-5-(trifluoromethyl)phenyl)indoline-6-carboxamide], the Ki on DDR1 [1] and at DDR2 was below 25 nM throughout. For the same compound, the IC50 on DDR1 [2] was 50 to 80 nM.

As to `O=C(Nc1cc(CN2CCCC2)cc(C(F)(F)F)c1)c1ccc2c(c1)N(Cc1cnc3cnccn13)CC2` [Example 50, 1-(imidazo[1,2-a]pyrazin-3-ylmethyl)-N-(3-(pyrrolidin-1-ylmethyl)-5-(trifluoromethyl)phenyl)indoline-6-carboxamide], the Ki on DDR1 [1] and on DDR2 was below 25 nM throughout. Further, on DDR1 [2], the IC50 fell in the range of 25 to 50 nM.

As to `Cc1n[nH]c2ncc(CN3CCc4ccc(C(=O)Nc5cc(C(=O)N6CCN(C)CC6)cc(C(F)(F)F)c5)cc43)cc12` [Example 74, 1-((3-methyl-1H-pyrazolo[3,4-b]pyridin-5-yl)methyl)-N-(3-(4-methylpiperazine-1-carbonyl)-5-(trifluoromethyl)phenyl)indoline-6-carboxamide], the inhibitory constant (Ki) on DDR1 [1] and at DDR2 was below 25 nM in each case. Moreover, the IC50 on DDR1 [2] is below 25 nM.

For `CN1CCN(Cc2cc(NC(=O)c3ccc4c(c3)N(C(=O)c3cnc5cnccn35)CC4)cc(C(F)(F)F)c2)CC1` [Example 15, 1-(imidazo[1,2-a]pyrazine-3-carbonyl)-N-(3-((4-methylpiperazin-1-yl)methyl)-5-(trifluoromethyl)phenyl)indoline-6-carboxamide], the Ki on DDR1 [1] and at DDR2 was below 25 nM throughout. Also, the IC50 at DDR1 [2] was in the range of 50 to 80 nM.

Turning to `CN1CCN(Cc2ccc(NC(=O)c3ccc4c(c3)N(Cc3cnc5ccnn5c3)CC4)cc2C(F)(F)F)CC1` [Example 76, N-(4-((4-methylpiperazin-1-yl)methyl)-3-(trifluoromethyl)phenyl)-1-(pyrazolo[1,5-a]pyrimidin-6-ylmethyl)indoline-6-carboxamide], the Ki at DDR1 [1] and at DDR2 was below 25 nM in each case. For the same compound, the IC50 on DDR1 [2] is below 25 nM.
